PMC7248311, “Bisphenol A Diglycidyl Ether (BADGE) and Bisphenol Analogs, but Not Bisphenol A (BPA), Activate the CatSper Ca^2+ Channel in Human Sperm” (Frontiers in Endocrinology, 2020)
Entries after “also recorded” stand apart in the source; their conditions may differ. Where two headings read alike, the source gives them in different places.

Assays:
human sperm cells [1] = test: Ca^2+ fluorimetric assay: Ca^2+ signals ([Ca^2+]i) induced in human sperm cells; assay type: cell-based; settings: for Induction of Ca^2+ signals in human sperm cells (in words): 10 μM; for EC50 / activation at 10 µM: Homo sapiens, Sperm; for EC50: read-out: EC50, μM Mean; for activation at 10 µM: read-out: Mean relative peak Ca^2+ signal at 10 μM (in %) (n = 3); for EC05, μM Mean: lowest effective dose from dose response of induced Ca^2+ signals
Method: (§1) Changes in the free intracellular Ca^2+ concentration [Ca^2+]i in human sperm cells were measured in 384 multi-well-plates in a fluorescence plate reader (Fluostar Omega, BMG Labtech, Germany) at 30°C as described in Rehfeld et al. ([41]). Briefly, sperm cells were incubated with the fluorescent Ca^2+ indicator Fluo-4, AM (10 μM) for 45 min at 37°C. […] Fluorescence was recorded before and after addition of 25 μL bisphenol solutions, negative control (buffer with vehicle), positive control (progesterone, 5 μM final concentration) manually with an electronic multichannel pipette to duplicate wells. […] For the inhibition studies mean basal fluorescence (F0) was defined as the last 5 cycles before addition of 100 nM progesterone.
The bisphenols were screened at a concentration of 10 μM, along a positive control (progesterone, 5 μM), and negative control (HTF^+ with vehicle). Changes in [Ca^2+]i were recorded for 4 min after addition of the chemicals and controls. We calculated the relative peak Ca^2+ signal in % induced by the bisphenols, by dividing the peak Ca^2+ signal with that of the paired positive control, in order to compare data from the different experiments.

[2] = tested on: progesterone-induced Ca^2+ signals in human sperm cells; test: Inhibition of Ca^2+ signals induced by 100 nM progesterone after 5 min pre-incubation with bisphenols; assay type: cell-based; settings: for Dose-dependent inhibition of progesterone-induced Ca^2+ signals (in words): 100 nM progesterone, 5 min pre-incubation; for IC50: Homo sapiens, Sperm, read-out: IC50, μM Mean
Method: as §1
We compared the amplitude of the Ca^2+ signals induced by 100 nM of progesterone in human sperm cells after 5 min of pre-incubation with serially diluted doses of the bisphenols or a negative buffer control.

[3] = tested on: G protein-coupled estrogen receptor (GPER); design: method as in PMID 28858478; settings: low doses ref 46; cited from earlier work
human sperm [4] = tested on: human sperm; design: method as in doi:10.20883/jms.2016.5; settings: 0.1 nM−1 μM ref 40; cited from earlier work
human sperm cells [5] = settings: cited from earlier work
[6] = tested on: voltage-activated Ca^2+ channels; settings: cited from earlier work
human sperm [7] = tested on: human sperm; design: method as in PMID 27686954; settings: cited from earlier work
human sperm cells [8] = test: Sperm penetration into a viscous medium (modified Kremer's test, methylcellulose); assay type: cell-based; settings: 10 μM, 60 min, counted at 2 cm, vs negative control
Method: Assessment of sperm penetration was done using sperm penetration tests with 4,000 cP methylcellulose (1% w/v) as an artificial viscous medium as described in Alasmari et al. ([43]). The viscous methylcellulose (1% w/v) medium was prepared in HTF^+ by adding 10 mg methylcellulose per mL HTF^+ and mixing it by rotation overnight at RT. The viscous methylcellulose (1% w/v) medium was introduced into glass capillary tubes [borosilicate microslides (VitroTubes) 0.20 mm × 2.0 mm × 10 cm (VitroCom, USA)] by capillary forces, by placing the glass tubes vertically in a 1.5 mL microfuge tube with 750 μL methylcellulose (1% w/v) for 15min. Care was taken to prevent air bubbles from entering the glass tubes. The end of the glass tube that was placed in the microfuge tube was sealed with wax (Hounisens laboratorieudstyr A/S, Denmark). […] The number of sperm cells were counted at 2 cm distance from the opening of the tube, with two fields in each of four planes counted. Throughout the study, all samples were counted by the same observer. Only experiments with a positive increment in cell density at 2 cm for the positive control compared to the negative control and with more than 40 sperm cells counted at 2 cm for the positive control were used for the analysis.

[9] = tested on: capacitated human sperm cells; test: Image cytometry-based acrosome reaction assay; assay type: cell-based; settings: 10 μM, 30 min, vs negative control
Method: The amount of live acrosome reacted sperm cells was measured using an image cytometry-based acrosome reaction assay, as described in Rehfeld et al. ([41]). Briefly, capacitated sperm cells (10 × 10^6/ml) were divided into equal aliquots and mixed thoroughly with a staining solution containing 5 μg/mL FITC-PSA, 0.5 μg/mL PI, and 10 μg/mL Hoechst in HTF^+. Bisphenols (10 μM) were added to the aliquots of stained capacitated sperm cells together with the positive controls, ionomycin (10 μM), and progesterone (10 μM). As a negative control, HTF^+ with 0.2% DMSO was used. After addition of bisphenols and controls the samples were mixed well and placed on a gentle mixing heating plate at 37°C. After 30 min of incubation, the aliquots were mixed thoroughly by pipetting and a 50 μL sample was drawn and added to a 100 μL aliquot of an immobilizing solution containing 0.6 M NaHCO3 and 0.37% (v/v) formaldehyde in distilled water. This solution was mixed well by pipetting, immediately loaded in an A2 slide (ChemoMetec A/S, Allerød, Denmark) and assessed in a NC-3000 image cytometer (ChemoMetec A/S, Allerød, Denmark). The following protocol was applied: 2-color flexicyte with Hoechst defining the sperm cells to be analyzed; Ex475-Em560/35: exposure time 3,000 ms, Ex530-Em675/75: exposure time 500 ms, with a minimum of 5,000 analyzed cells (positive for Hoechst). […]

CatSper = test: Induced Ca^2+ signals in absence or presence of CatSper inhibitor RU1968; settings: RU1968 30 μM; bisphenols 5–50 μM, progesterone 5 μM; n = 3
[10] = bisphenol 10 μM, peak Ca^2+ signal divided by that of progesterone 5 μM in the same experiment
[11] = dose response of induced Ca^2+ signals, n = 3–7
[12] = Ca^2+ signals induced by 100 nM progesterone after pre-incubation, n = 3–5

Structure (SMILES) | Induction of Ca^2+ signals in human sperm cells (in words) (human sperm cells [1]) | EC05, μM Mean (human sperm cells [1]; n = 3–7) [µM] | Dose-dependent inhibition of progesterone-induced Ca^2+ signals (in words) [2] | activation at 10 µM (human sperm cells [1]; [10]) [%] | Induction of Ca^2+ signals in SKBR3 cells via GPER [3] | EC50 (human sperm cells [1]; [11]) [µM] | other results
CC(C)(c1ccc(OCC2CO2)cc1)c1ccc(OCC2CO2)cc1 (stereo not shown) [BADGE, Bisphenol A diglycidyl ether] | can induce Ca^2+ signals | 1.82 | dose-dependently inhibit |  |  |  | EC50 (human sperm cells [1]): 8.18 µM; activation at 10 µM (human sperm cells [1]): 14.8%
CC(C)(c1ccc(O)cc1)c1ccc(O)cc1 [BPA, Bisphenol A] | induced no Ca^2+ signals; also recorded: do not induce Ca^2+ signals |  |  | 1.44 | induce Ca^2+ signals |  | Effect on human sperm motility parameters (human sperm [4]): could affect human sperm motility parameters; Effect on [Ca^2+]i in single human sperm cells (human sperm cells [5]; 1 μM ref 40): rapid, transient increase; Effect on [Ca^2+]i in human sperm cells (human sperm cells [5]; 0.1, 1, and 10 μM ref 34): did not affect; Activation of other voltage-activated Ca^2+ channels [6]: activate; Inhibition of other voltage-activated Ca^2+ channels [6]: inhibit; Dose inducing mitochondrial dysfunction in human sperm (human sperm [7]): ≥ 300 µM
Oc1ccc(C(c2ccc(O)cc2)(C(F)(F)F)C(F)(F)F)cc1 [BPAF, Bisphenol AF] | can induce Ca^2+ signals | 0.36 | dose-dependently inhibit |  | induce Ca^2+ signals |  | EC50 (human sperm cells [1]): 2.4 µM; activation at 10 µM (human sperm cells [1]): 58%; Numbers of human sperm cells penetrating into a viscous medium (human sperm cells [8]): significant increase; Live acrosome reacted sperm cells [9]: significant increase; IC50 [2]: 12.3 µM
CCC(C)(c1ccc(O)cc1)c1ccc(O)cc1 [BPB, Bisphenol B] | can induce Ca^2+ signals | 2.37 | dose-dependently inhibit | 11.8 | induce Ca^2+ signals | 14.9 | IC50 [2, 12]: 39.9 µM
Oc1ccc(C(c2ccccc2)(c2ccccc2)c2ccc(O)cc2)cc1 [BPBP, Bisphenol BP] | can induce Ca^2+ signals | 0.38 | all bisphenols, except BPBP, were able to dose dependently inhibit | 9.09 |  | 0.79 | 
Cc1cc(C(C)(C)c2ccc(O)c(C)c2)ccc1O [BPC, Bisphenol C] | can induce Ca^2+ signals | 0.70 | dose-dependently inhibit | 21.7 |  | 10.3 | IC50 [2, 12]: 45.2 µM
CC(c1ccc(O)cc1)c1ccc(O)cc1 [BPE, Bisphenol E] | induced no Ca^2+ signals |  |  |  |  |  | activation at 10 µM (human sperm cells [1]): 5.37%
Oc1ccc(Cc2ccc(O)cc2)cc1 [BPF, Bisphenol F] | induced no Ca^2+ signals |  |  | 5.09 | induce Ca^2+ signals |  | 
CC(C)c1cc(C(C)(C)c2ccc(O)c(C(C)C)c2)ccc1O [BPG, Bisphenol G] | can induce Ca^2+ signals | 0.18 | dose-dependently inhibit | 109 |  | 1.27 | Numbers of human sperm cells penetrating into a viscous medium (human sperm cells [8]): significant increase; Live acrosome reacted sperm cells [9]: significant increase; IC50 [2, 12]: 1.86 µM
O=S(=O)(c1ccc(O)cc1)c1ccc(O)cc1 [BPS, Bisphenol S] | induced no Ca^2+ signals |  |  | 4.41 | induce Ca^2+ signals |  | 
CC(=O)[C@H]1CC[C@H]2[C@@H]3CCC4=CC(=O)CC[C@]4(C)[C@H]3CC[C@]12C [progesterone] |  |  |  |  |  |  | Inhibition of the induced Ca^2+ signal in the presence of RU1968 (CatSper): highly inhibited by RU1968
